Laboratory results published in ChEMBL document CHEMBL1137021, “The phenolic diterpene totarol inhibits multidrug efflux pump activity in Staphylococcus aureus” (Antimicrob Agents Chemother, 2007).
Values after ≈ are worked out from the molar mass of the structure shown. Active and inactive are the calls of the source. No cut-off for these calls is given here.

How the values were obtained:
[1] = test system: Staphylococcus aureus; assay: Antimicrobial activity against Staphylococcus aureus K3092 overexpressing NorA gene; type: functional
[2] = test system: Staphylococcus aureus; assay: Antimicrobial activity against totarol-resistant Staphylococcus aureus K3090; type: functional
[3] = test system: Staphylococcus aureus; assay: Antimicrobial activity against NorA deficient Staphylococcus aureus K1758; type: functional
[4] = test system: Staphylococcus aureus; assay: Antimicrobial activity against Staphylococcus aureus NCTC 8325-4 expressing NorA gene; type: functional
[5] = target: T1, Quinolone resistance protein NorA (Staphylococcus aureus, UniProt P0A0J7); assay: Inhibition of NorA efflux pump in Staphylococcus aureus K3092 assessed as inhibition of EtBr efflux
T1 sequence (P0A0J7 whole entry): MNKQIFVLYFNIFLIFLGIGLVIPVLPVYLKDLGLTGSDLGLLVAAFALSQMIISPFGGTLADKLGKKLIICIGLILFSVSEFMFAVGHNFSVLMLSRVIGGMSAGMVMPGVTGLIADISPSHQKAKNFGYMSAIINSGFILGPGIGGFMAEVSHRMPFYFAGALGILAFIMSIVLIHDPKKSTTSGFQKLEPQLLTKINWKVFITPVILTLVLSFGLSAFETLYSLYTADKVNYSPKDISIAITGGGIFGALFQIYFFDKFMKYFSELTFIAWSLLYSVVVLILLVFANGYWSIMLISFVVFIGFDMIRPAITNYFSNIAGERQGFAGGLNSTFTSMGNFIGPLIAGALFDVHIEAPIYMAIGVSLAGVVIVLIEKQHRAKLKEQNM

[6] = test system: Staphylococcus aureus; assay: Antimicrobial activity against Staphylococcus aureus 1199B expressing NorA pump; type: functional, organism-based
[7] = test system: Plasmodium falciparum; assay: Antiplasmodial activity against chloroquine-resistant Plasmodium falciparum; type: functional, organism-based
[8] = target: T2, Quinolone resistance protein NorA (Staphylococcus aureus) (UniProt P0A0J7); assay: Inhibition of NorA efflux pump in Staphylococcus aureus 1199B assessed as reduction in Norfloxacin MIC at 1 ug/ml
T2 sequence (whole entry): T1 sequence (P0A0J7 whole entry)

[9] = target: T2, Quinolone resistance protein NorA (Staphylococcus aureus); assay: Inhibition of NorA efflux pump in Staphylococcus aureus 1199B assessed as reduction in ethidium bromide MIC
[10] = test system: Staphylococcus aureus; assay: Inhibition of tetK efflux pump in Staphylococcus aureus XU212 assessed as reduction in tetracycline MIC at 1 ug/ml
[11] = test system: Staphylococcus aureus; assay: Antimicrobial activity against Staphylococcus aureus RN4220 expressing MsrA protein; type: functional, organism-based
[12] = test system: Staphylococcus aureus; assay: Inhibition of MsrA efflux pump in Staphylococcus aureus RN4220 assessed as reduction in erythromycin MIC at 1 ug/ml
[13] = Ratio of inhibition of CHO cells to IC50 for chloroquine-resistant Plasmodium falciparum
[14] = test system: Staphylococcus aureus; assay: Antimicrobial activity against Staphylococcus aureus XU212 expressing tetK pump; type: functional, organism-based
[15] = target: T2, Quinolone resistance protein NorA (Staphylococcus aureus); assay: Inhibition of NorA efflux pump in Staphylococcus aureus K3092 assessed as reduction in ethidium bromide MIC
[16] = target: T2, Quinolone resistance protein NorA (Staphylococcus aureus); assay: Inhibition of NorA efflux pump in methicillin-resistant Staphylococcus aureus assessed as reduction in methicillin MIC
[17] = test system: Staphylococcus aureus; assay: Antimicrobial activity against Staphylococcus aureus ATCC 25923; type: functional
[18] = target: T2, Quinolone resistance protein NorA (Staphylococcus aureus); assay: Inhibition of NorA efflux pump in Staphylococcus aureus isolate15 assessed as potentiation of oxacillin MIC

Row | Compound | MIC [1] [µg/mL] | MIC [2] [µg/mL] | MIC [3] [µg/mL] | MIC [4] [µg/mL] | IC50 [5] [µM] | Activity [6] | IC50 [7] [µM] | fold change (FC) [8] | Activity [9] | fold change (FC) [10] | Activity [11] | fold change (FC) [12] | Ratio [13] | Activity [14] | Activity [15] | fold change (FC) [16] | MIC [17] [µg/mL] | fold change (FC) [18]
1 | CC[n+]1c(-c2ccccc2)c2cc(N)ccc2c2ccc(N)cc21.[Br-] [HOMIDIUM BROMIDE] | 100 | 0.63 | 0.63 | 6.25 |  |  |  |  |  |  |  |  |  |  |  |  |  | 
2 | COC(=O)[C@H]1[C@H]2C[C@@H]3c4[nH]c5cc(OC)ccc5c4CCN3C[C@H]2C[C@@H](OC(=O)c2cc(OC)c(OC)c(OC)c2)[C@@H]1OC [RESERPINE] |  |  |  |  | 8 |  |  |  |  |  |  |  |  |  |  |  |  | 
3 | CC(C)c1c(O)ccc2c1CC[C@H]1C(C)(C)CCC[C@]21C [TOTAROL] | 16 (≈ 55.9 µM) | 16 (≈ 55.9 µM) | 1.25 (≈ 4.36 µM) | 2.5 (≈ 8.73 µM) | 15 | Active | 4.29 | 4 | Active | 4 | Active | 8 | 40 | Active | Active | 8 | 2 (≈ 6.98 µM) | 50
